Data reported in patent US9926324B2, “Heteroaromatic compounds as PI3 kinase modulators and methods of use” (Calitor Sciences, LLC, priority 2012, dated 2018).
Like-named read-outs stand apart in the source and are kept apart here.

Experiments:
[1] = Compound stability in human liver microsomes; assay type: in vitro ADME; details: pH 7.4; for half-life at 5 μM: human liver microsomes 0.5 mg protein/mL, compound 5 μM, NADPH 1.0 mM, 37° C., read-out: Human T1/2; for CLint scaled at 5 μM: human liver microsomes, in vivo CLint extrapolated
Description: (§1) Human or rat liver microsomes incubations were conducted in duplicate in polypropylene tubes. The typical incubation mixtures consisted of human or rat liver microsomes (0.5 mg protein/mL), compounds of interest (5 μM) and NADPH (1.0 mM) in a total volume of 200 μL potassium phosphate buffer (PBS, 100 mM, pH=7.4). Compounds were dissolved in DMSO and diluted with PBS such that the final concentration of DMSO was 0.05%. The enzymatic reactions were commenced with the addition of […] after a 3-min preincubation and incubated in a water bath open to the air at 37° C. Reactions were terminated at various time points (0, 5, 10, 15, 30, 60 min) by adding equal volume of ice-cold acetonitrile. The samples were stored at −80° C. until LC/MS/MS assays.
(§2) The concentrations of compounds in the incubation mixtures of human or rat liver microsomes were determined by a LC/MS/MS method. The ranges of the linearity in the concentration range were determined for each tested compounds.
(§3) A parallel incubation was performed using denatured microsomes as the negative control, and reactions were terminated at various time points (0, 15, 60 min) after incubation at 37° C.
(§4) Dextromethorphan (70 μM) was selected as the positive control, and reactions were terminated at various time points (0, 5, 10, 15, 30, 60 min) after incubation at 37° C. Both positive and negative control samples were included in each assay to ensure the integrity of the microsomal incubation system.
(§5) The concentrations of compounds in human or rat liver microsome incubations were plotted as a percentage of the relevant zero time point control for each reaction. The in vivo CLint were extrapolated (ref: Naritomi Y, Terashita S, Kimura S, Suzuki A, Kagayama A, Sugiyama Y. Prediction of human hepatic clearance from in vivo animal experiments and in vitro metabolic studies with liver microsomes from animals and humans. Drug Metabolism and Disposition 2001, 29: 1316-1324).

[2] = Compound stability in rat liver microsomes; assay type: in vitro ADME; details: for half-life at 5 μM / CLint scaled at 5 μM: pH 7.4; for half-life at 5 μM: read-out: Rat T1/2; for CLint scaled at 5 μM: rat liver microsomes, in vivo CLint extrapolated
Description: as §1, §2, §3, §4, §5

[3] = Pharmacokinetic profiles in rats after intravenous and oral administration; assay type: in vivo; details: for F: oral dose generally 5 or 10 mg/kg; for AUC(0-t) / half-life / Vd: rat, plasma; for Vd: read-out: Vss
Description: The compounds disclosed herein are assessed in pharmacokinetic studies in mice, rats, dogs or monkeys. The compounds are administered as a water solution, 2% HPMC+1% TWEEN® 80 in water solution, 5% DMSO+5% solutol in saline, 4% MC suspension or capsule. For the intravenous administration, the animals are generally given at 1 or 2 mg/kg dose. For the oral (p.o.) dosing, mice and rats are generally given 5 or 10 mg/kg dose, and dogs and monkeys are generally given 10 mg/kg dose. The blood samples (0.3 mL) are drawn at 0.25, 0.5, 1.0, 2.0, 3.0, 4.0, 6.0, 8.0, 12 and 24 h time points or 0.083, 0.25, 0.5, 1.0, 2.0, 4.0, 6.0, 8.0 and 24 h time points and centrifuged at 3,000 or 4000 rpm for 2 to 10 min. The plasma solutions are collected, stored at −20° C. or −70° C. until analyzed by LC/MS/MS as described above.

[4] = molecular target: T1, mTOR (h) (Homo sapiens, UniProt P42345); experiment: mTOR (h) kinase assay (33P-ATP, filter); assay type: biochemical
T1 construct: purchased Millipore UK Ltd (assay service)
Description: mTOR (h) is incubated with 50 mM HEPES pH 7.5, 1 mM EDTA, 0.01% Tween 20, 2 mg/mL substrate, 3 mM Manganese Chloride and [γ-^33P-ATP] (specific activity approx. 500 cpm/pmol, concentration as required). The reaction is initiated by the addition of the MnATP mix. After incubation for 40 minutes at room temperature, the reaction is stopped by the addition of 3% phosphoric acid solution. 10 μL of the reaction is then spotted onto a P30 filtermat and washed three times for 5 minutes in 75 mM phosphoric acid and once in methanol prior to drying and scintillation counting.
(§6) The kinase assays described herein were performed at Millipore UK Ltd, Dundee Technology Park, Dundee DD2 1SW, UK.

[5] = molecular target: T2, PI3K p110α/p85α (h) (Homo sapiens, UniProt P42336); experiment: PI3K p110α/p85α (h) non-radioactive HTRF assay; assay type: biochemical
T2 construct: purchased Millipore UK Ltd (assay service)
T2 sequence (P42336 whole entry): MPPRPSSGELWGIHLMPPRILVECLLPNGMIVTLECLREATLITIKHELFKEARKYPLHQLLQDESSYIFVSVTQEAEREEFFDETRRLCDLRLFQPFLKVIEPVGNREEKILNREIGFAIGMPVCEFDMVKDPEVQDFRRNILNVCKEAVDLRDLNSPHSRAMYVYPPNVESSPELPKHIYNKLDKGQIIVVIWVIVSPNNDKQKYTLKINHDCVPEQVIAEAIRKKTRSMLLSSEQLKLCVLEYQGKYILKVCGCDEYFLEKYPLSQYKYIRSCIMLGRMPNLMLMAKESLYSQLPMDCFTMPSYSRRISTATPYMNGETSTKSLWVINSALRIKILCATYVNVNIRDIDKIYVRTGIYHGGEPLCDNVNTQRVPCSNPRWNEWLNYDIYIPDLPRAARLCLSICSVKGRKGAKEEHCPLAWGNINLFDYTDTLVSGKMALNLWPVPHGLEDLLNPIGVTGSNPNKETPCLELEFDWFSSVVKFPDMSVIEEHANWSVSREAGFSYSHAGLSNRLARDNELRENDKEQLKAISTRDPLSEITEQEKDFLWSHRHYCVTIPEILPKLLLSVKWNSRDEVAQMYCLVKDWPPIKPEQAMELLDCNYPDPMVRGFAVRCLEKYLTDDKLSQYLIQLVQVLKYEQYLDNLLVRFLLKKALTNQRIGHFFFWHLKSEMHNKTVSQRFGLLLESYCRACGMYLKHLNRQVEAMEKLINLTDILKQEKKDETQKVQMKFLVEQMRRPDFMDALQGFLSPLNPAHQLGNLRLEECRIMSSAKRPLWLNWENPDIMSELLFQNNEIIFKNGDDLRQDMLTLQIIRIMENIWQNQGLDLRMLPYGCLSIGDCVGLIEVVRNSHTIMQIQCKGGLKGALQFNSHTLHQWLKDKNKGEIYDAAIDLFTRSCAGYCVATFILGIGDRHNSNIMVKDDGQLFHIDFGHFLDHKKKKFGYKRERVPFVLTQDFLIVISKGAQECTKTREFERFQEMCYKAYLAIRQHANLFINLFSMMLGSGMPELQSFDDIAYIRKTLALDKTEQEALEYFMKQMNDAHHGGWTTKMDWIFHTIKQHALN
T2 sequence (P27986 whole entry partner): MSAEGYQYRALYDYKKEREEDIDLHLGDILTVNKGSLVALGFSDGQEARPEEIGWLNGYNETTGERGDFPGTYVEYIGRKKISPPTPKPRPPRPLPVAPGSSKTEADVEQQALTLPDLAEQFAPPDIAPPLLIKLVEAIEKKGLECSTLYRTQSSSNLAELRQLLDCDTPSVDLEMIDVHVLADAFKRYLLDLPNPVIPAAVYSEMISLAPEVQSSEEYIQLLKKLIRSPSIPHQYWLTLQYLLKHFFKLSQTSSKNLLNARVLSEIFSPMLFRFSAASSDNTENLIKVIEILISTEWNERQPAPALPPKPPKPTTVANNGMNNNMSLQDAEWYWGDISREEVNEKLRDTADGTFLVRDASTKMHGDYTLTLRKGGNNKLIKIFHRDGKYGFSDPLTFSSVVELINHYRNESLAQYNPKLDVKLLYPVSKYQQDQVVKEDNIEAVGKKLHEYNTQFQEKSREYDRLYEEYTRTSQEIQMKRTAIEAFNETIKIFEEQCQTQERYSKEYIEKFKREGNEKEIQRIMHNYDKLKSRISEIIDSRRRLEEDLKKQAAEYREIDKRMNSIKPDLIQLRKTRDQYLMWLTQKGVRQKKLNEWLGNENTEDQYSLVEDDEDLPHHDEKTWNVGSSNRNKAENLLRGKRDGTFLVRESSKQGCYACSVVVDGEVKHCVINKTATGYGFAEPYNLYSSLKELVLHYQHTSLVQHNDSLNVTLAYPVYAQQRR
Description: (§7) PI3K p110α/p85α (h) is incubated in assay buffer containing 10 μM phosphatidylinositol 4,5-bisphosphate and MgATP (concentration as required). The reaction is initiated by the addition of the ATP solution. After incubation for 30 minutes at room temperature, the reaction is stopped by the addition of stop solution containing EDTA and biotinylated phosphatidylinositol-3,4,5-trisphosphate. Finally, detection buffer is added, which contains europium-labelled anti-GST monoclonal antibody, GST-tagged GRP1 PH domain and streptavidin allophycocyanin. The plate is then read in timeresolved fluorescence mode and the homogenous time-resolved fluorescence (HTRF) signal is determined according to the formula HTRF=10000×(Em665 nm/Em620 nm).
as §6

[6] = system: U87MG glioblastoma cells; experiment: Tumor xenograft model (U87MG), tumor growth inhibition; assay type: in vivo, athymic nude mice; details: 14 days
Description: The efficacy of compounds disclosed herein was evaluated in a standard murine model of tumorigenesis. Human tumor cells (U87MG glioblastoma cells from ATCC) were expended in culture, harvested, and injected subcutaneously onto the rear flank of 6-7 week old female athymic nude mice (BALB/cA nu/nu, Hunan SLAC Laboratory Animal, Co.) (n=6-10 for vehicle group and for each dosing group). When tumors reached a volume of 100-250 mm^3, animals were randomly divided into vehicle control (for example, 5% DMSO+70% Captisol® (30%), 7% HCl (pH1), 18% Captisol® (30%); or 7% DMSO, 7% HCl (pH1), 70% Captisol® (30%), 16% Captisol® (30%), or the like) and compound groups. Subsequent administration of compound by oral gavage begins anywhere from day 0 to day 15 post tumor cell challenge and generally continues with once a day for the duration of the experiment.
Progression of tumor growth is assessed by tumor volumes and recorded as a function of time. The long (L) and short (W) axes of the subcutaneous tumors were measured with calipers twice weekly, and the tumor volume (TV) calculated as (L×W^2)/2). TGI was calculated from the difference between the median tumor volumes of vehicle-treated and drug-treated mice, expressed as a percentage of the median tumor volume of the vehicle-treated control group, by the following relation:
Initial statistical analysis is done by repeated measures analysis of variance (RMANOVA), followed by Scheffe psot hoc testing for multiple comparisons. Vehicle alone (5% DMSO+70% Captisol® (30%), 7% HCl (pH1), 18% Captisol® (30%); or 7% DMSO, 7% HCl (pH1), 70% Captisol® (30%), 16% Captisol® (30%), or the like) is the negative control.

[7] = molecular target: T3, PI3K p110β/p85α (h) (Homo sapiens, UniProt P42338); experiment: PI3K p110β/p85α (h) non-radioactive HTRF assay; assay type: biochemical
T3 construct: purchased Millipore UK Ltd (assay service)
T3 sequence (P42338 whole entry): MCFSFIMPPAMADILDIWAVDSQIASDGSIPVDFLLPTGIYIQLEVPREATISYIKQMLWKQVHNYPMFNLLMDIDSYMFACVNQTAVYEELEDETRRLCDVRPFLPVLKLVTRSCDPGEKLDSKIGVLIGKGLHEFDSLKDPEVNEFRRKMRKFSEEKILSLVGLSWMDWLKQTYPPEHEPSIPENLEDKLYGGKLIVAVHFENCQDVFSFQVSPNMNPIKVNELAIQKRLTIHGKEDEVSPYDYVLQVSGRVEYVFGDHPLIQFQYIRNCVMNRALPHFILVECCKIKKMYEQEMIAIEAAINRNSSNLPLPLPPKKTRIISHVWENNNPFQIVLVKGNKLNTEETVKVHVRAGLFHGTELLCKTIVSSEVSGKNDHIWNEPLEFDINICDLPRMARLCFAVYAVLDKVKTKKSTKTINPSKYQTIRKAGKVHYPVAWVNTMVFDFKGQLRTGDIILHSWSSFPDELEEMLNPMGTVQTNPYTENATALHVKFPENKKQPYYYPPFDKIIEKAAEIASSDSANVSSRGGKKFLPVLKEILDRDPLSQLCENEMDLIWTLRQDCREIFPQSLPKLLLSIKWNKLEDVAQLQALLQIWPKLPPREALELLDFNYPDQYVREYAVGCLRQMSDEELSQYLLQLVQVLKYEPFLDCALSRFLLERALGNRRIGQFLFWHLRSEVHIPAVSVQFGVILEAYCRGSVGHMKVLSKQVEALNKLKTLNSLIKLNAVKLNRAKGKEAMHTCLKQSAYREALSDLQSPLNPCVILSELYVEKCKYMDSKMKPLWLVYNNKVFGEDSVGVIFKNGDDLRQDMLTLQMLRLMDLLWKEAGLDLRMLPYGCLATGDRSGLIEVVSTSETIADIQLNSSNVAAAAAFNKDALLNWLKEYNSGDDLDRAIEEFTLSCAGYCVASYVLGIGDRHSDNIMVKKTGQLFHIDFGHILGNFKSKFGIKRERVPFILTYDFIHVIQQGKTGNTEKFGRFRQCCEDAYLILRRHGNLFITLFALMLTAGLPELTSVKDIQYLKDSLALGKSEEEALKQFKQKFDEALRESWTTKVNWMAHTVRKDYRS
T3 sequence (P27986 whole entry partner): as the sequence (P27986 whole entry partner) above
Description: as §7, with “(p110β/p85α)” for “p110α/p85α”, “phosphatidylinositol-4,5-bisphosphate” for “phosphatidylinositol 4,5-bisphosphate”, “MgATP mix.” for “ATP solution.”, “streptavidin-allophycocyanin.” for “streptavidin allophycocyanin.”
as §6

[8] = molecular target: T4, PI3K (p110δ/p85α) (h) (Homo sapiens, UniProt O00329); experiment: PI3K p110δ/p85α (h) non-radioactive HTRF assay; assay type: biochemical
T4 construct: purchased Millipore UK Ltd (assay service)
T4 sequence (O00329 whole entry): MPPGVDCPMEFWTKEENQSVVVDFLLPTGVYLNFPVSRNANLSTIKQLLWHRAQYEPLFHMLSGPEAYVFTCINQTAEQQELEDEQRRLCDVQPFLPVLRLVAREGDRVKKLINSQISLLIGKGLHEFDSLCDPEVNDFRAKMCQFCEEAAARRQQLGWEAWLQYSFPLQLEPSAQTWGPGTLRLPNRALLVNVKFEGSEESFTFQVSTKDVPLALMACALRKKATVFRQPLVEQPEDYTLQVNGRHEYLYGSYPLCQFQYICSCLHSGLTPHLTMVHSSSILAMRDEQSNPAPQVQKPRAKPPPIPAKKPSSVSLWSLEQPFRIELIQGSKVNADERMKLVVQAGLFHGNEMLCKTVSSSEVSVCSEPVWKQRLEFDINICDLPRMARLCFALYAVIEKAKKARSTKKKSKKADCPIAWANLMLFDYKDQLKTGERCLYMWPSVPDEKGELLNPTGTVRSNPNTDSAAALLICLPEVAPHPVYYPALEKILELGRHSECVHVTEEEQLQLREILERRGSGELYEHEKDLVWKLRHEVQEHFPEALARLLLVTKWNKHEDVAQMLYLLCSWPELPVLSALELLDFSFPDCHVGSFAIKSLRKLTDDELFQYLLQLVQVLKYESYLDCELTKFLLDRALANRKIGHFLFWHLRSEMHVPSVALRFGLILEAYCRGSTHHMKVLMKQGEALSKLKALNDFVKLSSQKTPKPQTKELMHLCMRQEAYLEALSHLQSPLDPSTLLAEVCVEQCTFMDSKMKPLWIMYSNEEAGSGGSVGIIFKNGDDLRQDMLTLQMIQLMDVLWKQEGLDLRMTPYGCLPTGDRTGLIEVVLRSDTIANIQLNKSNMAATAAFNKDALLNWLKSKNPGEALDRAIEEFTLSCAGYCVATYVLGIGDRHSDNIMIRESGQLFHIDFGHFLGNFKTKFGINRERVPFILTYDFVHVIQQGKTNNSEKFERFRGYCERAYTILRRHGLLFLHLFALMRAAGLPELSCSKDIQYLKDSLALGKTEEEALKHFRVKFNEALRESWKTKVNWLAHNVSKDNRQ
T4 sequence (P27986 whole entry partner): as the sequence (P27986 whole entry partner) above
Description: as §7, with “(p110δ/p85α)” for “p110α/p85α”, “phosphatidylinositol-4,5-bisphosphate” for “phosphatidylinositol 4,5-bisphosphate”, “MgATP mix.” for “ATP solution.”, “streptavidin-allophycocyanin.” for “streptavidin allophycocyanin.”
as §6

[9] = rat liver microsomes 0.5 mg protein/mL, compound 5 μM, NADPH 1.0 mM, 37° C.

Row | SMILES | half-life at 5 μM [1] [min] | CLint scaled at 5 μM [1] [mL/min/kg] | half-life at 5 μM [2, 9] [min] | CLint scaled at 5 μM [2] [mL/min/kg] | F ([3]; iv dose 1 mg/kg) [%] | Cl/F ([3]; iv dosing 1 mg/kg) [L/h/kg] | AUC(0-t) ([3]; iv dosing 1 mg/kg) [ng·h/mL] | half-life ([3]; iv dosing 1 mg/kg) [min] | Vd ([3]; iv dosing 1 mg/kg) [L/kg] | IC50 [4] [nM] | IC50 [5] [nM] | F ([3]; iv dose 2 mg/kg) [%] | Cl/F ([3]; iv dosing 2 mg/kg) [L/h/kg] | AUC(0-t) ([3]; iv dosing 2 mg/kg) [ng·h/mL] | half-life ([3]; iv dosing 2 mg/kg) [min] | Vd ([3]; iv dosing 2 mg/kg) [L/kg] | IC50 [7] [nM] | IC50 [8] [nM] | further results
1 | C#Cc1cnc2ccc(-c3cnc(OC)c(NS(=O)(=O)c4ccc(F)cc4)c3)nn12 [Ex. 1, N-(5-(3-ethynylimidazo[1,2-b]pyridazin-6-yl)-2-methoxypyridin-3-yl)-4-fluorobenzenesulfonamide] | 162 | 10.8 | 97.4 | 25.5 | 96.0 | 0.14 | 6540 | 383 | 1 | 23 | 14 |  |  |  |  |  |  |  | 
2 | COc1ncc(-c2ccc3ncc(C#CCO)n3n2)cc1NS(=O)(=O)c1ccc(F)cc1 [Ex. 2, 4-fluoro-N-(5-(3-(3-hydroxyprop-1-yn-1-yl)imidazo[1,2-b]pyridazin-6-yl)-2-methoxypyridin-3-yl)benzenesulfonamide] |  |  |  |  |  |  |  |  |  | 29 | 6 | 56.1 | 0.10 | 20700 | 205 | 0.22 |  |  | TGI % U87MG ([6]; 1 mg/kg oral gavage): 6%; TGI % U87MG ([6]; 3 mg/kg oral gavage): 21%; TGI % U87MG ([6]; 10 mg/kg oral gavage): 35%
3 | COc1ncc(-c2ccc3ncc(C#CC(C)O)n3n2)cc1NS(=O)(=O)c1ccc(F)cc1 (stereo not shown) [Ex. 3, 4-fluoro N (5 (3 (3 hydroxybut-1-yn-1-yl)imidazo[1,2-b]pyridazin-6-yl)-2-methoxypyridin-3-yl)benzenesulfonamide] | 144 | 12.1 | 50.6 | 49.1 |  |  |  |  |  | 16 | 12 | 61.5 | 0.07 | 29000 | 187 | 0.16 |  |  | 
4 | C#Cc1cnc2ccc(-c3cnc(OC)c(NS(=O)(=O)c4ccc(F)cc4F)c3)nn12 [Ex. 8, N-(5-(3-ethynylimidazo[1,2-b]pyridazin-6-yl)-2-methoxypyridin-3-yl)-2,4-difluorobenzenesulfonamide] | 243 | 7.17 | 74.9 | 33.2 |  |  |  |  |  | 12 | 6 | 115.1 | 0.13 | 16600 | 181 | 0.37 |  |  | 
5 | CC#Cc1cnc2ccc(-c3cnc(OC)c(NS(=O)(=O)c4ccc(F)cc4F)c3)cn12 [Ex. 18, 2,4-difluoro-N-(2-methoxy-5-(3-(prop-1-yn-1-yl)imidazo[1,2-a]pyridin-6-yl)pyridin-3-yl)benzenesulfonamide] | 212 | 8.18 | 43.9 | 56.6 | 97.16 | 0.10 | 10300 | 140 | 0.35 |  |  |  |  |  |  |  | 28 | 2 | 
6 | COc1ncc(-c2ccc3ncc(C#N)n3c2)cc1NS(=O)(=O)c1ccc(F)cc1F [Ex. 19, N-(5-(3-cyanoimidazo[1,2-a]pyridin-6-yl)-2-methoxypyridin-3-yl)-2,4-difluorobenzenesulfonamide] | 424 | 4.1 |  |  |  |  |  |  |  |  |  | 54.66 | 0.23 | 10100 | 155 | 0.55 | 28 | 4 | Rat T1/2 [2, 9]: ∞
